Assay results reported in patent US20080227766A1, “Synergistic, Silver-Containing Biocide Composition” (THOR GMBH, priority 2005, published 2008).

Experiments:
[1] = system: Pseudomonas aeruginosa (ATCC 9027); assay: MIC and synergy index (Kull) in Müller-Hinton broth; type: cell-based; conditions: 72 h/25° C.
Procedure: (§1) The synergism of a combination of silver with 1,2-benzisothiazolin-3-one (BIT) was tested. Silver was used in the form of silver nitrate. […] The test organism used was the gram-negative bacterium Pseudomonas aeruginosa (ATCC 9027). For the test, aqueous mixtures with different concentrations of silver nitrate and BIT were prepared and were tested for their activity on Pseudomonas aeruginosa. The aqueous mixtures further included a Müller-Hinton broth (commercial product “Merck Nr. 10393”) as nutrient medium. The cell density of Pseudomonas aeruginosa was 10^6 microbes/ml.
(§2) The incubation time was 72 h at 25° C. Each sample was incubated at 120 rpm on an incubation shaker. After 72 h the samples were inspected for growth of Pseudomonas aeruginosa. Growth was shown through a clouding of the nutrient medium. In this way, the minimum inhibitory concentrations (MICs) of the two actives, individually and in combination, were ascertained. The MIC is the concentration at which there is no longer any clouding of the nutrient medium.
(§3) The synergism arising was represented numerically by calculation of the synergy index (SI). The calculation was made in accordance with the commonplace method of F. C. Kull et al., Applied Microbiology, vol. 9 (1961), p. 538. There the SI is calculated according to the following formula:
synergy index SI=Qa/QA+Qb/QB. […]

[2] = system: Staphylococcus aureus (ATCC 6538); assay: as above; type: cell-based
Procedure: as §1
as §2, with “The incubation time was 72 h at 25° C.” left out, “After 72 h the samples were inspected for growth of Pseudomonas aeruginosa.” left out
as §3
synergy index SI=Qa/QA+Qb/QB.
When this formula is applied to the biocide system BIT+Ag under test here, the parameters in the formula are defined as follows: • Qa=concentration of BIT in the biocide mixture of BIT+Ag • QA=concentration of BIT as a single biocide • Qb=concentration of Ag in the biocide mixture of BIT+Ag • QB=concentration of Ag as a single biocide
If the synergy index has a value of more than 1, this means that antagonism is present. If the synergy index adopts a value of 1, this means that the two biocides have an additive effect.
The experiment from example 2 was repeated in the same way but using the gram-positive test organism Staphylococcus aureus (ATCC 6538) instead of Pseudomonas aeruginosa.
Example 3 was repeated in the same way, but with N-methyl-1,2-benzisothiazolin-3-one (MBIT) as the biocidal component.
Example 3 was repeated, but using N-butyl-1,2-benzisothiazolin-3-one (BBIT) as the biocidal component.

**Q.** With `[Ag]` [Ag, silver] as the compound, how does the “MIC at Ag concentration Qb” value ([1]; Ag (from silver nitrate) in mixture BIT + Ag (or Ag alone)) read?
**A.** 25.4 ppm

**Q.** What about the “MIC at Ag concentration Qb” value ([2]; 72 h/25° C., Ag in mixture BIT + Ag (or Ag alone)) of the same compound?
**A.** 19.1 ppm

**Q.** And the “MIC at Ag concentration Qb” value ([2]; 96 h/25° C., Ag in mixture BBIT + Ag (or Ag alone))?
**A.** 25.4 ppm

**Q.** What about the “MIC at Ag concentration Qb” value ([2]; 96 h/25° C., Ag in mixture MBIT + Ag (or Ag alone)) of the same compound?
**A.** 27 ppm

**Q.** Which “MIC at BBIT concentration Qa” value ([2]; 96 h/25° C., BBIT in mixture BBIT + Ag (or BBIT alone)) does the source give for `CCCCn1sc2ccccc2c1=O` [BBIT, N-butyl-1,2-benzisothiazolin-3-one] here?
**A.** 20 ppm

**Q.** `O=c1[nH]sc2ccccc12` [BIT, 1,2-benzisothiazolin-3-one] was tested. Which “MIC at BIT concentration Qa” value ([1]; BIT in mixture BIT + Ag (or BIT alone)) did it give?
**A.** 40 ppm

**Q.** And the “MIC at BIT concentration Qa” value ([2]; 72 h/25° C., BIT in mixture BIT + Ag (or BIT alone))?
**A.** 20 ppm

**Q.** For `Cn1sc2ccccc2c1=O` [MBIT, N-methyl-1,2-benzisothiazolin-3-one], which “MIC at MBIT concentration Qa” value ([2]; 96 h/25° C., MBIT in mixture MBIT + Ag (or MBIT alone)) is on record?
**A.** 20 ppm
